Assay results from US11274101B2, “Heterocyclic compound” (Takeda Pharmaceutical Company Limited, priority 2017, dated 2022).

biological target: T1, His-hMAGL (recombinant polyhistidine tagged human MAGL protein) (Homo sapiens, UniProt Q99685); assay: Measurement of MAGL inhibitory activity (arachidonic acid production from 2-arachidonylglycerol, RapidFire-mass spectrometry); type: biochemical; settings: test compound 10 μM; MAGL inhibitory rate
T1 construct: made in house; host or cells: E. coli BL21(DE3)
T1 sequence (Q99685 1-303): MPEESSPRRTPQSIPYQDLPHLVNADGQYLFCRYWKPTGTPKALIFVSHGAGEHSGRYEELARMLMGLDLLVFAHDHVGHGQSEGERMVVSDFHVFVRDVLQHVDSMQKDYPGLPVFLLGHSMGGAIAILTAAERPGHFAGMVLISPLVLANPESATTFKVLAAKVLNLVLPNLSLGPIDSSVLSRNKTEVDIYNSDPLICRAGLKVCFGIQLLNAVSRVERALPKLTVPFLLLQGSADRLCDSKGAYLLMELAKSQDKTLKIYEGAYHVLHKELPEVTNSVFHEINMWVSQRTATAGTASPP
Experimental: The His-hMAGL obtained above was diluted with enzyme reaction buffer (10 mM Tris-HCl, pH 7.5, 1 mM EDTA, 0.025 (w/v) % Triton X-100, 0.01% Bovine serum albumin) to a concentration of 7.5 ng/mL. To each well of a 384 well assay plate (Greiner 781280) was added a solution (5 μL) of a test compound dissolved in dimethyl sulfoxide (DMSO), which was diluted with the above-mentioned enzyme reaction buffer, then His-hMAGL solution (5 μL) diluted to a concentration of 7.5 ng/mL was added, and the mixture was incubated at room temperature for 60 min. Thereafter, to each well was added 5 μL of 150 μM 2-arachidonylglycerol (Tocris Bioscience), and the mixture was incubated at room temperature for 10 min. Then, 10 μL of 2% formic acid (Wako Pure Chemical Industries, Ltd.) was added to stop the reaction. Furthermore, acetonitrile (50 μL) containing 3 μM arachidonic acid-d8 (Cayman Chemical Company) was added and the mixture was stirred.
The amount of arachidonic acid in the obtained enzyme reaction mixture was calculated by measuring by RapidFire-mass spectrometry and correcting by the amount of arachidonic acid-d8. High Throughput online solid phase extraction was performed using RapidFire 300™ system (Agilent Technologies, Inc.). Samples were loaded on SPE C4 cartridge (Agilent Technologies, Inc.) and desalted with 0.2 (v/v) % acetic acid (Wako Pure Chemical Industries, Ltd.) in ultrapure water/acetonitrile (70/30, v/v) at a flow rate of 1.5 mL/min, eluted at a flow rate of 0.5 mL/min with 0.2 (v/v) % acetic acid dissolved in acetonitrile/ultrapure water (90/10, v/v), and injected into the mass spectrometry part. The injection needle was washed with ultrapure water (500 millisecond) and acetonitrile (500 millisecond) to minimize carry-over. The suction time (injection loop 5 μL), load/cleansing time, elution time and re-equilibration time were adjusted to 300, 3000, 4250 and 1000 milliseconds, respectively, and the total cycle time was adjusted to about 10.0 seconds. The RapidFire300 system was controlled by RapidFire UI software version 3.6 (Agilent Technologies, Inc.).
The mass spectrometry of the resultant product was performed using API4000™ triple quadrupole mass spectrometer (AB SCIEX) equipped with an electrospray ion sauce (TurboIon Spray™) in a negative selected reaction monitoring (SRM) mode. The conditions of SRM are shown below. The parameters of the instrument were optimized as follows: capillary temperature 600° C., ion spray voltage −4.5 kV, collision gas 8, curtain gas 15 psi, ion source gas 1 60 psi, ion source gas 2 60 psi. The mass spectrometer was controlled by Analyst™ software version 1.5.1 (AB SCIEX). The peak area integration was analyzed using RapidFire integrator software version 3.6 (Agilent Technologies, Inc.).
MAGL inhibitory rate (%) was calculated according to the following calculation formula. (1-(arachidonic acid production amount of test compound addition group−arachidonic acid production amount of enzyme-free group)+(arachidonic acid production amount of test compound-free group−arachidonic acid production amount of enzyme-free group))×100

With `Cc1cc(COC[C@H]2C[C@@H](OC(=O)N3CC4(COC(=O)N4)C3)C2)ccc1Cl` [Example 29, cis-3-(((4-chloro-3-methylbenzyl)oxy)methyl)cyclobutyl 6-oxo-7-oxa-2,5-diazaspiro [3.4]octane-2-carboxylate] as the compound, how does the inhibition at 10 µM read?
The inhibition at 10 µM was 100%.

`O=C1NC2(CO1)CN(C(=O)O[C@H]1C[C@@H](COCc3ccc(F)cc3Cl)C1)C2` [Example 30, cis-3-(((2-chloro-4-fluorobenzyl)oxy)methyl)cyclobutyl 6-oxo-7-oxa-2,5-diazaspiro[3.4]octane-2-carboxylate] was tested. Which inhibition at 10 µM did it give?
The inhibition at 10 µM was 100%.

How did the inhibition at 10 µM turn out when `O=C1NC2(CO1)CN(C(=O)O[C@H]1C[C@@H](COCc3ccc(F)c(F)c3F)C1)C2` [Example 31, cis-3-(((2,3,4-trifluorobenzyl)oxy)methyl)cyclobutyl 6-oxo-7-oxa-2,5-diazaspiro[3.4]octane-2-carboxylate] was run?
The inhibition at 10 µM was 100%.

Which inhibition at 10 µM does the source give for `O=C1NC2(CO1)CN(C(=O)O[C@H]1C[C@@H](COCc3cc(F)c(F)cc3F)C1)C2` [Example 32, cis-3-(((2,4,5-trifluorobenzyl)oxy)methyl)cyclobutyl 6-oxo-7-oxa-2,5-diazaspiro [3.4]octane-2-carboxylate] here?
Its inhibition at 10 µM is 100%.

`O=C1NC2(CO1)CN(C(=O)O[C@H]1C[C@@H](COCc3c(F)cc(F)cc3F)C1)C2` [Example 33, cis-3-(((2,4,6-trifluorobenzyl)oxy)methyl)cyclobutyl 6-oxo-7-oxa-2,5-diazaspiro[3.4]octane-2-carboxylate] was tested. Which inhibition at 10 µM did it give?
Its inhibition at 10 µM is 101%.

`O=C1NC2(CO1)CN(C(=O)O[C@H]1C[C@H](Oc3ccc(C(F)(F)F)cc3F)C1)C2` [Example 34, trans-3-(2-fluoro-4-(trifluoromethyl)phenoxy)cyclobutyl 6-oxo-7-oxa-2,5-diazaspiro[3.4]octane-2-carboxylate] was tested. Which inhibition at 10 µM did it give?
The inhibition at 10 µM was 99%.

Which inhibition at 10 µM does the source give for `O=C1NC2(CCN(C(=O)O[C@H]3C[C@@H](COc4ccc(F)c(F)c4F)C3)C2)CO1` (stereo partly drawn) [Example 35, cis-3-((2,3,4-trifluorophenoxy)methyl)cyclobutyl 2-oxo-3-oxa-1,7-diazaspiro[4.4]nonane-7-carboxylate] here?
Its inhibition at 10 µM is 100%.

For `O=C1NC2(CO1)CN(C(=O)O[C@H]1C[C@@H](COCc3ccc(C(F)(F)F)cc3F)C1)C2` [Example 36, cis-3-(((2-fluoro-4-(trifluoromethyl)benzyl)oxy)methyl)cyclobutyl 6-oxo-7-oxa-2,5-diazaspiro[3.4]octane-2-carboxylate], which inhibition at 10 µM is on record?
The inhibition at 10 µM was 100%.

Which inhibition at 10 µM does the source give for `O=C1NC2(CO1)CN(C(=O)O[C@H]1CC[C@H](Oc3ccc(C(F)(F)F)cc3F)CC1)C2` [Example 37, trans-4-(2-fluoro-4-(trifluoromethyl)phenoxy)cyclohexyl 6-oxo-7-oxa-2,5-diazaspiro[3.4]octane-2-carboxylate] here?
Its inhibition at 10 µM is 101%.

How did the inhibition at 10 µM turn out when `O=C1NC2(CO1)CN(C(=O)O[C@H]1CC[C@@H](Oc3ccc(C(F)(F)F)cc3F)CC1)C2` [Example 38, cis-4-(2-fluoro-4-(trifluoromethyl)phenoxy)cyclohexyl 6-oxo-7-oxa-2,5-diazaspiro[3.4]octane-2-carboxylate] was run?
The inhibition at 10 µM was 102%.

`O=C1NC2(CO1)CN(C(=O)O[C@H]1C[C@H](Oc3ccc(F)c(F)c3F)C1)C2` [Example 39, trans-3-(2,3,4-trifluorophenoxy)cyclobutyl 6-oxo-7-oxa-2,5-diazaspiro[3.4]octane-2-carboxylate] was tested. Which inhibition at 10 µM did it give?
The inhibition at 10 µM was 100%.

How did the inhibition at 10 µM turn out when `O=C1NC2(CO1)CN(C(=O)O[C@H]1C[C@@H](OCc3ccc(F)cc3F)C1)C2` [Example 40, cis-3-((2,4-difluorobenzyl)oxy)cyclobutyl 6-oxo-7-oxa-2,5-diazaspiro[3.4]octane-2-carboxylate] was run?
The inhibition at 10 µM was 100%.

Which inhibition at 10 µM does the source give for `O=C1NC2(CO1)CN(C(=O)O[C@H]1C[C@@H](OCc3ccc(F)c(F)c3)C1)C2` [Example 41, cis-3-((3,4-difluorobenzyl)oxy)cyclobutyl 6-oxo-7-oxa-2,5-diazaspiro[3.4]octane-2-carboxylate] here?
Its inhibition at 10 µM is 99%.

How did the inhibition at 10 µM turn out when `O=C1NC2(CO1)CN(C(=O)O[C@H]1C[C@H](OCc3ccccc3)C1)C2` [Example 42, trans-3-(benzyloxy)cyclobutyl 6-oxo-7-oxa-2,5-diazaspiro[3.4]octane-2-carboxylate] was run?
Its inhibition at 10 µM is 99%.

With `O=C1NC2(CO1)CN(C(=O)O[C@H]1C[C@H](Oc3c(F)cc(F)cc3F)C1)C2` [Example 43, trans-3-(2,4,6-fluorophenoxy)cyclobutyl 6-oxo-7-oxa-2,5-diazaspiro[3.4]octane-2-carboxylate] as the compound, how does the inhibition at 10 µM read?
The inhibition at 10 µM was 102%.

For `O=C1NC2(CO1)CN(C(=O)O[C@H]1C[C@@H](Oc3ccc(F)cc3Cl)C1)C2` [Example 44, cis-3-(2-chloro-4-fluorophenoxy)cyclobutyl 6-oxo-7-oxa-2,5-diazaspiro[3.4]octane-2-carboxylate], which inhibition at 10 µM is on record?
Its inhibition at 10 µM is 103%.

With `Cc1ccc(O[C@H]2C[C@@H](OC(=O)N3CC4(COC(=O)N4)C3)C2)cc1F` [Example 45, cis-3-(3-fluoro-4-methylphenoxy)cyclobutyl 6-oxo-7-oxa-2,5-diazaspiro[3.4]octane-2-carboxylate] as the compound, how does the inhibition at 10 µM read?
The inhibition at 10 µM was 98%.

`O=C1NC2(CO1)CN(C(=O)O[C@H]1C[C@@H](Oc3ccc(Cl)cc3)C1)C2` [Example 47, cis-3-(4-chlorophenoxy)cyclobutyl 6-oxo-7-oxa-2,5-diazaspiro[3.4]octane-2-carboxylate] was tested. Which inhibition at 10 µM did it give?
The inhibition at 10 µM was 100%.

`O=C1NC2(CO1)CN(C(=O)O[C@H]1C[C@@H](Oc3ccc(C(F)(F)F)cc3)C1)C2` [Example 48, cis-3-(4-(trifluoromethyl)phenoxy)cyclobutyl 6-oxo-7-oxa-2,5-diazaspiro[3.4]octane-2-carboxylate] was tested. Which inhibition at 10 µM did it give?
The inhibition at 10 µM was 100%.

For `O=C1NC2(CO1)CN(C(=O)O[C@H]1C[C@@H](Oc3cccc(Cl)c3)C1)C2` [Example 49, cis-3-(3-chlorophenoxy)cyclobutyl 6-oxo-7-oxa-2,5-diazaspiro[3.4]octane-2-carboxylate], which inhibition at 10 µM is on record?
Its inhibition at 10 µM is 100%.

`Cc1cc(O[C@H]2C[C@@H](OC(=O)N3CC4(COC(=O)N4)C3)C2)ccc1F` [Example 50, cis-3-(4-fluoro-3-methylphenoxy)cyclobutyl 6-oxo-7-oxa-2,5-diazaspiro[3.4]octane-2-carboxylate] was tested. Which inhibition at 10 µM did it give?
Its inhibition at 10 µM is 99%.

With `O=C1NC2(CO1)CN(C(=O)O[C@H]1C[C@@H](Oc3ccc(F)c(F)c3F)C1)C2` [Example 51, cis-3-(2,3,4-trifluorophenoxy)cyclobutyl 6-oxo-7-oxa-2,5-diazaspiro[3.4]octane-2-carboxylate] as the compound, how does the inhibition at 10 µM read?
The inhibition at 10 µM was 99%.

How did the inhibition at 10 µM turn out when `O=C1NC2(CO1)CN(C(=O)O[C@H]1C[C@@H](Oc3ccccc3Cl)C1)C2` [Example 52, cis-3-(2-chlorophenoxy)cyclobutyl 6-oxo-7-oxa-2,5-diazaspiro[3.4]octane-2-carboxylate] was run?
The inhibition at 10 µM was 100%.

With `Cc1ccc(O[C@H]2C[C@@H](OC(=O)N3CC4(COC(=O)N4)C3)C2)cc1` [Example 53, cis-3-(4-methylphenoxy)cyclobutyl 6-oxo-7-oxa-2,5-diazaspiro[3.4]octane-2-carboxylate] as the compound, how does the inhibition at 10 µM read?
The inhibition at 10 µM was 101%.

With `O=C1NC2(CO1)CN(C(=O)O[C@H]1C[C@@H](Oc3ccc(Cl)cc3F)C1)C2` [Example 54, cis-3-(4-chloro-2-fluorophenoxy)cyclobutyl 6-oxo-7-oxa-2,5-diazaspiro[3.4]octane-2-carboxylate] as the compound, how does the inhibition at 10 µM read?
Its inhibition at 10 µM is 100%.

Which inhibition at 10 µM does the source give for `Cc1cc(F)ccc1O[C@H]1C[C@@H](OC(=O)N2CC3(COC(=O)N3)C2)C1` [Example 55, cis-3-(4-fluoro-2-methylphenoxy)cyclobutyl 6-oxo-7-oxa-2,5-diazaspiro[3.4]octane-2-carboxylate] here?
Its inhibition at 10 µM is 100%.

Which inhibition at 10 µM does the source give for `Cc1ccc(O[C@H]2C[C@@H](OC(=O)N3CC4(COC(=O)N4)C3)C2)c(F)c1` [Example 56, cis-3-(2-fluoro-4-methylphenoxy)cyclobutyl 6-oxo-7-oxa-2,5-diazaspiro[3.4]octane-2-carboxylate] here?
The inhibition at 10 µM was 101%.
